This passage reports IC50 results from patent US20240327417A1, “HETEROCYCLIC COMPOUNDS” (BeiGene Switzerland GmbH, priority 2021, published 2024).

Test [1] deals with T1, Full length DGKζ (in-house protein M1-V929) (Homo sapiens, UniProt Q13574).
T1 construct: His (N); TEV cleavage site (N); made in house; host or cells: Sf9 insect cells (baculovirus, Bac-to-Bac)
Briefly: Biochemical DGK IC50 assay (ADP-Glo, lipid micelle substrate), DGKζ. As to conditions: 0.5 nM enzyme, 140 μM ATP, 80 μM DAG, 1 hour preincubation, 1 hour reaction, room temperature, read-out: IC50s for DGKζ. As to the method:
(§1) Enzymatic reactions of DGKζ, DGKα and DGKδ were performed using ADP-Glo assay with lipid micelle substrate. […] Full length DGKα (D21-10BG, SignalChem) and full length DGKδ (D23-10G, SignalChem) were purchased. Lipid micelle was prepared by dissolving DAG (Sigma, 317505-10MG) and PS (Sigma, P7769-100MG) with chloroform which was firtherly removed by rotary evaporation. The obtained residue was resuspended in buffer containing 25 mM HEPES pH 7.0, 0.5 mM EDTA and 160 mM Octyl β-D glucopyranoside by vigorous mixing and ultrasonic (IID, Scientz).
(§2) The inhibition activities testing for the compound disclosed herein were carried out at room temperature in assay buffer containing 50 mM HEPES, 10 mM MgCl2, 0.01% BSA, 0.1 mM Na3VO4, 0.005% Tween-20 and 0.01 mM CaCl2. Compounds in DMSO were dispensed into wells of a black 384 well plate (Corning 4514) using D300e digital dispenser (Tecan). The ranges of compounds final concentration were 1.55˜10000 nM or 23.3˜150000 nM. 3 μL 2× enzyme solution was added to wells. […] After 1 hour reaction, 5 μL ADP-Glo reagent (Promga V9101) was added and incubated for 40 minutes. 10 μL Kinase Detection reagent was added and incubated for 30 minutes. Luminescence was measured on a microplate reader (PHERAstar FSX, BMG labtech). The IC50s are calculated based on inhibition of enzyme activity in the presence of increasing concentrations of compounds.
Human His-TEV-DGK-zeta-pFastBac1 and human baculovirus samples was generated using the Bac-to-Bac baculovirus expression system (Invitrogen) according to the manufacturer's protocol. The DNA used for expression of DGK-zeta, have SEQ ID Nos: 1. Baculovirus amplification was achieved using infected SF9 cells at 1:2000 virus/cells ratios, and grown for 96 hours at 27° C. post-transfected.
The expression scaled up for each protein was carried out in the […] from CORNING. 4 L of 3×10^6 cells/mL Sf9 cells (Expression System, Invitrogen) grown in SF900™ II SFM insect medium (Expression System) was infected with virus stock at 1:200 virus/cells ratio, and grown for 48 hours at 27° C. post-transfection. The infected cell culture was harvested by centrifugation at 6000 rpm for 15 min 4° C. in a SORVALL LYNX6000 centrifuge. The cell pellets were stored at −80° C.
Full length human DGKζ produced as described above, was purified from Sf9 baculovirus-infected insect cell paste. The cells were lysed using sonication method, and the lysates were clarified by centrifugation.
For orientation: ADP-Glo first removes unused ATP, then detects ADP through luciferase.

Test [2] deals with T2, Full length DGKα (D21-10BG, SignalChem) (Homo sapiens, UniProt P23743).
T2 construct: Full length DGKα (D21-10BG, SignalChem); purchased SignalChem D21-10BG
As to the kind of experiment: Biochemical DGK IC50 assay (ADP-Glo, lipid micelle substrate), DGKα. As to conditions: 7.5 nM enzyme, 140 μM ATP, 80 μM DAG, 1 hour preincubation, 1 hour reaction, room temperature, read-out: IC50s for DGKα. As to the method:
as §1, §2

T1 sequence (Q13574 1-929 isoform Q13574-4): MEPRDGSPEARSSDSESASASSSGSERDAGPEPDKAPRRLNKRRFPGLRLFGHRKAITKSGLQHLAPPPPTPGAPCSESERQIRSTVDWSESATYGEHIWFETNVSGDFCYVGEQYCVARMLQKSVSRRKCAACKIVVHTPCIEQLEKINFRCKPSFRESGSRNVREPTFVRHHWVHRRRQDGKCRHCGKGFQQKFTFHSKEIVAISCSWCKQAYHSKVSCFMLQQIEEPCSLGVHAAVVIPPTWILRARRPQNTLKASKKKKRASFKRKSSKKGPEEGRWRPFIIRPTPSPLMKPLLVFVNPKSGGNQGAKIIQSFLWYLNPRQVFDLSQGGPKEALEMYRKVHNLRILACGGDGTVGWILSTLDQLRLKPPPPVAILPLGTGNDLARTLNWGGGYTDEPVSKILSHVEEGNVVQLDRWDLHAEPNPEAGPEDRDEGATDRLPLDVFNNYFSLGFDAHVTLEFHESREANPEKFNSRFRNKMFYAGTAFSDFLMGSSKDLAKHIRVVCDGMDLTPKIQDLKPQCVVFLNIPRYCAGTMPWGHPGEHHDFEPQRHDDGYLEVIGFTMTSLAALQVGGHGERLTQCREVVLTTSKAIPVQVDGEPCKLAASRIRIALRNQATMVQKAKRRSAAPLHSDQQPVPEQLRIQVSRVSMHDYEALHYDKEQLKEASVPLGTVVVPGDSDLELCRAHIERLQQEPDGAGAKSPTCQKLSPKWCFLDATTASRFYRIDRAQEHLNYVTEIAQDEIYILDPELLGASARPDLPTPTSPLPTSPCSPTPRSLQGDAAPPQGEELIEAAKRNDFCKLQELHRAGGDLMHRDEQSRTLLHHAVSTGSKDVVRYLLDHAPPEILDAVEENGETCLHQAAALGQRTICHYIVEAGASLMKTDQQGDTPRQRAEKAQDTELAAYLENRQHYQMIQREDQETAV
T2 sequence (P23743 whole entry): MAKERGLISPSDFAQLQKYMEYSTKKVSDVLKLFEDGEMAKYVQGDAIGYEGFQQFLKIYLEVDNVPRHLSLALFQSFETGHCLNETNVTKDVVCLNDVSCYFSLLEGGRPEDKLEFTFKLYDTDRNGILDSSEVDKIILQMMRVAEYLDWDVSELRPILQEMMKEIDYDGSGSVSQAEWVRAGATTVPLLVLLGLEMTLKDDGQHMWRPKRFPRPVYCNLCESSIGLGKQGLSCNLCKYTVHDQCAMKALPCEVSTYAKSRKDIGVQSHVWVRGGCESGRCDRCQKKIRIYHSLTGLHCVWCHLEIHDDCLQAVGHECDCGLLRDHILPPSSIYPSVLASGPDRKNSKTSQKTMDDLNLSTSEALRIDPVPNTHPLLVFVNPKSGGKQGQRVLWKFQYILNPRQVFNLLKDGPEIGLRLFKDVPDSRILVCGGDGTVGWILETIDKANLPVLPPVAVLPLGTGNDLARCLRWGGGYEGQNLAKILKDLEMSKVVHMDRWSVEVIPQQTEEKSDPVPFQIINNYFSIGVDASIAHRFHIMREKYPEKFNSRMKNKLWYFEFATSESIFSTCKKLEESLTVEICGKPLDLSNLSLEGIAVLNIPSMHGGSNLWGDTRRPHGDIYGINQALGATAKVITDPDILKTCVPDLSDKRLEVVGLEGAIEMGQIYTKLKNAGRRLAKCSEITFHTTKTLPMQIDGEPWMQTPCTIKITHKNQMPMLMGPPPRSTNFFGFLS

`CC[C@H]1CN(C(C)c2ccc(C3CC3)nc2)[C@H](CC)CN1c1cc(=O)n(C)n2cc(CC#N)nc12` (single isomer, unassigned) [Compound A37b]: the IC50 in test [1] was 0.538 µM; in test [2] it was 0.26 µM.

Regarding `CC[C@H]1CN(C(C)c2ccc(C(C)C)nc2)[C@H](CC)CN1c1cc(=O)n(C)n2cc(CC#N)nc12` (single isomer, unassigned) [Compound A38a], the IC50 was found to be 0.021 µM in test [1] and 0.043 µM in test [2].

Turning to `CC[C@H]1CN(C(C)c2ccc(C(C)C)nc2)[C@H](CC)CN1c1cc(=O)n(C)n2cc(CC#N)nc12` (single isomer, unassigned) [Compound A38b], the figures for the IC50 in test [1] and in test [2] were 0.475 µM and 0.423 µM, respectively.

For the compound `CC[C@H]1CN(C(C)c2ccc(C3CC3)nc2F)[C@H](CC)CN1c1cc(=O)n(C)n2cc(CC#N)nc12` (single isomer, unassigned) [Compound A42a], the IC50 came out at 0.057 µM in test [1] and 0.339 µM in test [2].

For the compound `CC[C@H]1CN(C(C)c2ccc(C3CC3)nc2F)[C@H](CC)CN1c1cc(=O)n(C)n2cc(CC#N)nc12` (single isomer, unassigned) [Compound A42b], the IC50 in test [1] is 1.25 µM; in test [2] it was 1.06 µM.

As for `CC[C@@H]1CN(c2cc(=O)n(C)n3cc(CC#N)nc23)[C@@H](C)CN1C(C)c1ccc(C2CC2)nc1` (single isomer, unassigned) [Compound A43a], the figures for the IC50 in test [1] and in test [2] were 0.202 µM and 0.285 µM, respectively.

With `CC[C@@H]1CN(c2cc(=O)n(C)n3cc(CC#N)nc23)[C@@H](C)CN1C(C)c1ccc(C2CC2)nc1` (single isomer, unassigned) [Compound A43b], the IC50 in test [1] is more than 10 µM; in test [2], 1.49 µM.

In the case of `CC[C@H]1CN(C(C)c2ccc(OC(C)C)nc2)[C@H](CC)CN1c1cc(=O)n(C)n2cc(CC#N)nc12` (single isomer, unassigned) [Compound A45a], the results for the IC50 in test [1] and in test [2] were 0.008 µM and 0.941 µM, respectively.

As to `CC[C@H]1CN(C(C)c2ccc(OC(C)C)nc2)[C@H](CC)CN1c1cc(=O)n(C)n2cc(CC#N)nc12` (single isomer, unassigned) [Compound A45b], the IC50 in test [1] is 1.06 µM; in test [2], 0.835 µM.

Turning to `CC[C@H]1CN(C(C)c2ccc(C(C)(C)F)nc2)[C@H](CC)CN1c1cc(=O)n(C)n2cc(CC#N)nc12` (single isomer, unassigned) [Compound A46a], the IC50 in test [1] was 0.0064 µM; in test [2], 0.122 µM.

As to `CC[C@H]1CN(C(C)c2ccc(C(C)(C)F)nc2)[C@H](CC)CN1c1cc(=O)n(C)n2cc(CC#N)nc12` (single isomer, unassigned) [Compound A46b], the IC50 in test [1] was found to be 0.877 µM; in test [2], 0.671 µM.

Turning to `CC[C@H]1CN(C(C)c2ccc3ncsc3c2)[C@H](CC)CN1c1cc(=O)n(C)n2cc(CC#N)nc12` (single isomer, unassigned) [Compound A53a], the values for the IC50 in test [1] and in test [2] were 0.004 µM and 0.011 µM, respectively.

On to `CC[C@H]1CN(C(C)c2ccc3ncsc3c2)[C@H](CC)CN1c1cc(=O)n(C)n2cc(CC#N)nc12` (single isomer, unassigned) [Compound A53b], for which the IC50 in test [1] stood at 0.215 µM; in test [2] it was 0.235 µM.

With `CC[C@H]1CN(C(C)c2ccc3nc(C)sc3c2)[C@H](CC)CN1c1cc(=O)n(C)n2cc(CC#N)nc12` (single isomer, unassigned) [Compound A56a], the IC50 in test [1] amounted to 0.011 µM; in test [2] it was 0.087 µM.

For the compound `CC[C@H]1CN(C(C)c2ccc3nc(C)sc3c2)[C@H](CC)CN1c1cc(=O)n(C)n2cc(CC#N)nc12` (single isomer, unassigned) [Compound A56b], the results for the IC50 in test [1] and in test [2] were 0.638 µM and 0.659 µM, respectively.

Consider `CC[C@H]1CN(C(C)c2ccc3ncsc3n2)[C@H](CC)CN1c1cc(=O)n(C)n2cc(CC#N)nc12` (single isomer, unassigned) [Compound A57a], for which the values for the IC50 in test [1] and in test [2] were 0.0068 µM and 0.0079 µM, respectively.

Consider `CC[C@H]1CN(C(C)c2ccc3ncsc3n2)[C@H](CC)CN1c1cc(=O)n(C)n2cc(CC#N)nc12` (single isomer, unassigned) [Compound A57b], for which the results for the IC50 in test [1] and in test [2] were 0.357 µM and 0.172 µM, respectively.

On to `CC[C@H]1CN(C(C)c2ccc3nc(C)sc3n2)[C@H](CC)CN1c1cc(=O)n(C)n2cc(CC#N)nc12` (single isomer, unassigned) [Compound A58a], for which the IC50 in test [1] was 2.16 µM; in test [2] it was 1.22 µM.

In the case of `CC[C@H]1CN(C(C)c2ccc3nc(C)sc3n2)[C@H](CC)CN1c1cc(=O)n(C)n2cc(CC#N)nc12` (single isomer, unassigned) [Compound A58b], the results for the IC50 in test [1] and in test [2] were 0.0073 µM and 0.0133 µM, respectively.

As to `CC[C@H]1CN(C(C)c2cc3scnc3cc2F)[C@H](CC)CN1c1cc(=O)n(C)n2cc(CC#N)nc12` (single isomer, unassigned) [Compound A59a], the results for the IC50 in test [1] and in test [2] were 0.026 µM and 0.054 µM, respectively.

With `CC[C@H]1CN(C(C)c2cc3scnc3cc2F)[C@H](CC)CN1c1cc(=O)n(C)n2cc(CC#N)nc12` (single isomer, unassigned) [Compound A59b], the values for the IC50 in test [1] and in test [2] were 2.61 µM and 1.58 µM, respectively.

Consider `CC[C@@H]1CN(c2cc(=O)n(C)n3cc(CC#N)nc23)[C@@H](C)CN1C(C)c1cc2sc(C)nc2cc1F` (single isomer, unassigned) [Compound A60a], for which the IC50 in test [1] was 0.189 µM; in test [2], 0.826 µM.

`CC[C@@H]1CN(c2cc(=O)n(C)n3cc(CC#N)nc23)[C@@H](C)CN1C(C)c1cc2sc(C)nc2cc1F` (single isomer, unassigned) [Compound A60b]: the values for the IC50 in test [1] and in test [2] were 2.93 µM and 4.41 µM, respectively.

As to `CC[C@H]1CN(C(C)c2cc3sc(C)nc3cc2F)[C@H](CC)CN1c1cc(=O)n(C)n2cc(CC#N)nc12` (single isomer, unassigned) [Compound A61a], the figures for the IC50 in test [1] and in test [2] were 0.126 µM and 0.4 µM, respectively.

Regarding `CC[C@H]1CN(C(C)c2cc3sc(C)nc3cc2F)[C@H](CC)CN1c1cc(=O)n(C)n2cc(CC#N)nc12` (single isomer, unassigned) [Compound A61b], the IC50 in test [1] was determined as 2 µM; in test [2] it was 5.52 µM.

Take `CC[C@H]1CN(C(C)c2ccc3ncsc3c2F)[C@H](CC)CN1c1cc(=O)n(C)n2cc(CC#N)nc12` (single isomer, unassigned) [Compound A62a]: the IC50 amounted to 0.0085 µM in test [1] and 0.105 µM in test [2].

For the compound `CC[C@H]1CN(C(C)c2ccc3ncsc3c2F)[C@H](CC)CN1c1cc(=O)n(C)n2cc(CC#N)nc12` (single isomer, unassigned) [Compound A62b], the IC50 in test [1] was 1.21 µM; in test [2], 2.39 µM.

As for `CC[C@@H]1CN(c2cc(=O)n(C)n3cc(CC#N)nc23)[C@@H](C)CN1C(C)c1ccc2nc(C)sc2c1F` (single isomer, unassigned) [Compound A63a], the IC50 in test [1] turned out to be 0.006 µM; in test [2], 0.683 µM.

As for `CC[C@@H]1CN(c2cc(=O)n(C)n3cc(CC#N)nc23)[C@@H](C)CN1C(C)c1ccc2nc(C)sc2c1F` (single isomer, unassigned) [Compound A63b], the figures for the IC50 in test [1] and in test [2] were 1.79 µM and 5.78 µM, respectively.

Turning to `CC[C@H]1CN(C(C)c2ccc3scnc3c2)[C@H](CC)CN1c1cc(=O)n(C)n2cc(CC#N)nc12` (single isomer, unassigned) [Compound A65a], the IC50 amounted to 0.007 µM in test [1] and 0.047 µM in test [2].

Turning to `CC[C@H]1CN(C(C)c2ccc3scnc3c2)[C@H](CC)CN1c1cc(=O)n(C)n2cc(CC#N)nc12` (single isomer, unassigned) [Compound A65b], the IC50 in test [1] was determined as 0.158 µM; in test [2] it was 0.157 µM.

As to `CC[C@H]1CN(C(C)c2ccc3scnc3c2F)[C@H](CC)CN1c1cc(=O)n(C)n2cc(CC#N)nc12` (single isomer, unassigned) [Compound A66a], the figures for the IC50 in test [1] and in test [2] were 0.022 µM and 0.105 µM, respectively.
